Measured values published in paper PMC4728608, “A Cell-Penetrating Peptide with a Guanidinylethyl Amine Structure Directed to Gene Delivery” (Scientific Reports, 2016).
Read-outs that look alike come from different tables or passages of the source. Values belong to the compound of their own block, whether it stands above or below them.

Tests used:
[1] = cited from earlier work
Excerpt: The unnatural amino acid described herein was a lysine (Lys) derivative with a guanidinylethyl (GEt) group in the side chain amine [Lys(GEt)] (Fig. 1).

[2] = Potentiometric titration of model compounds; conditions: for protonation degree α at pH 5.5 / protonation degree α at pH 7.4: 100 mM amine and/or guanidine in 100 mM HCl titrated with 100 mM NaOH
Procedure: 1-Ethylamino-2-guanidinylethane hydrochloride, a model compound for Lys(GEt), was synthesized according to Supplementary Scheme S3 in order to clarify the protonation degree of the GEt amine structure within a range from pH 3 to pH 13. […] The monoprotonate state was a major form of the AEt amine structure at neutral pH. […] The GEt amine structure took the diprotonated form even at neutral pH, as expected.
N-Ethylethylenediamine hydrochloride (80.5 mg, 0.5 mmol) and 1-ethylamino-2-guanidinylethane hydrochloride (101.5 mg, 0.5 mmol) were separately dissolved in 100 mM HCl (10 mL) to obtain a solution with 100 mM amine and/or guanidine, and then titrated with 100 mM NaOH at 20 °C. Potentiometric titration was performed with a pH meter D-52 (Horiba, Kyoto, Japan). In this experiment, the titrant was added in quantities of 100 μL after the pH values were stabilized.

[3] = potentiometric titration, 20 °C
[4] = potentiometric titration, 100 mM in 100 mM HCl titrated with 100 mM NaOH, 20 °C

Structure (SMILES): NCCCC[C@H](N)C(=O)O [Lys, lysine]
pKa of protonated side chain (guanidine of Arg, primary amine of Lys) [1]: 10.2

Structure (SMILES): CCNCCN.Cl [N-Ethylethylenediamine hydrochloride]
protonation degree α at pH 5.5 [2, 3]: 0.97
protonation degree α at pH 7.4 [2, 3]: 0.66
pKa1 [2, 4]: 7.1
pKa2 [2, 4]: 10.3

Structure (SMILES): NCCNCCN [diethylenetriamine]
pKa of protonated secondary amine [1]: 3.9

pKa1 [2]: 8.8
pKa2 [2]: 12.0
protonation degree α at pH 5.5 [2, 3]: 0.99
protonation degree α at pH 7.4 [2, 3]: 0.96
Structure (SMILES): CCNCCNC(=N)N.Cl [model compound for Lys(GEt), 1-Ethylamino-2-guanidinylethane hydrochloride]
